Results published in US8354441B2, “Oxazoline derivatives” (Hoffmann-La Roche Inc., priority 2009, dated 2013).

Assays:
rat TAAR1 = target: T1, rat TAAR1 (Rattus norvegicus, UniProt Q923Y9); assay: TAAR1 radioligand binding with [3H]-rac-2-(1,2,3,4-tetrahydro-1-naphthyl)-2-imidazoline, membranes of stably transfected HEK293 cells; conditions: second value of the cell, read-out: Ki (μM) mouse/rat: rat
T1 construct: expressed in transfected cells; host or cells: HEK293 (ATCC # CRL-1573), stably transfected with pIRESneo2 expression plasmid
How it was run: (§1)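 Competition binding: competitors spanning 10 pM–30 μM displace 60 nM [3H]-rac-2-(1,2,3,4-tetrahydro-1-naphthyl)-2-imidazoline from stably transfected HEK293 membranes (mouse or rat receptor), 30 min, 4 °C, pH 7.0 buffer with Mg2+/Ca2+. Bound label counted after GF/C filtration; 10 μM unlabelled ligand defines non-specific binding.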

mouse TAAR1 = target: T2, mouse TAAR1 (Mus musculus, UniProt Q923Y8); assay: as above; conditions: first value of the cell, read-out: Ki (μM) mouse/rat: mouse
T2 construct: expressed in transfected cells; host or cells: HEK293 (ATCC # CRL-1573), stably transfected with pIRESneo2 expression plasmid
How it was run: as §1

T1 sequence (Q923Y9 whole entry): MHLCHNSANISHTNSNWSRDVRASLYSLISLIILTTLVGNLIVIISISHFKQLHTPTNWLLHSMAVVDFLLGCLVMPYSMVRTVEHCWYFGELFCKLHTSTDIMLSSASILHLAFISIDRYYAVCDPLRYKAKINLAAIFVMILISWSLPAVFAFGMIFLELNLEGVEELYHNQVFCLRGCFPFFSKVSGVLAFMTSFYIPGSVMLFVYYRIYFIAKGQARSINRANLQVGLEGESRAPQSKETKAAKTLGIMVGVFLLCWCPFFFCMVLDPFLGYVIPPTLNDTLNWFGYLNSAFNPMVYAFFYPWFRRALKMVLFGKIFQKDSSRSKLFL
T2 sequence (Q923Y8 whole entry): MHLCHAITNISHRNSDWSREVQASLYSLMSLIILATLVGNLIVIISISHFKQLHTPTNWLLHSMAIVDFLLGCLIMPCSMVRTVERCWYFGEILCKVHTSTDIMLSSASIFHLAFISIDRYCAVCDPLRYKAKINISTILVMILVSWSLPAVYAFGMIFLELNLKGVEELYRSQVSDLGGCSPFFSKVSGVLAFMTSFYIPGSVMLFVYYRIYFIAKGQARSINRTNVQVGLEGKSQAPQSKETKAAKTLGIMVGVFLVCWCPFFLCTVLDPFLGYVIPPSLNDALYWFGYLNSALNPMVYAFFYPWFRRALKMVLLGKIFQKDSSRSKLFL

Row | SMILES | Ki (rat TAAR1) | Ki (mouse TAAR1)
1 | CC(C)(C(=O)Nc1ccc(CC[C@H]2COC(N)=N2)cc1)c1ccc(Cl)cc1 [Example 72, N-{4-[2-((S)-2-Amino-4,5-dihydro-oxazol-4-yl)-ethyl]-phenyl}-2-(4-chloro-phenyl)-isobutyramide] | 0.001 µM | 0.0008 µM
2 | C#Cc1ccc(C(=O)Nc2ccc(CC[C@H]3COC(N)=N3)cc2)cc1 [Example 62, N-{4-[2-((S)-2-Amino-4,5-dihydro-oxazol-4-yl)-ethyl]-phenyl}-4-ethynyl-benzamide] | 0.0005 µM | 0.0003 µM
3 | NC1=N[C@@H](CCc2ccc(NC(=O)c3cccc(F)n3)cc2)CO1 [Example 88, 6-Fluoro-pyridine-2-carboxylic acid {4-[2-((S)-2-amino-4,5-dihydro-oxazol-4-yl)-ethyl]-phenyl}-amide] | 0.0014 µM | 0.0097 µM
4 | NC1=N[C@@H](CCc2ccc(NC(=O)C3CCC(C(F)(F)F)CC3)cc2)CO1 (stereo partly drawn) [Example 79, 4-Trifluoromethyl-cyclohexanecarboxylic acid {4-[2-((S)-2-amino-4,5-dihydro-oxazol-4-yl)-ethyl]-phenyl}-amide] | 0.0051 µM | 0.0057 µM
5 | NC1=N[C@@H](CCc2ccc(NC(=O)Oc3ccc(F)cc3)cc2)CO1 [Example 148, {4-[2-((S)-2-Amino-4,5-dihydro-oxazol-4-yl)-ethyl]-phenyl}-carbamic acid 4-fluoro-phenyl ester] | 0.0006 µM | 0.0005 µM
6 | NC1=N[C@@H](CCc2ccc(NC(=O)c3ccc(F)nc3F)cc2)CO1 [Example 110, N-{4-[2-((S)-2-Amino-4,5-dihydro-oxazol-4-yl)-ethyl]-phenyl}-2,6-difluoro-nicotinamide] | 0.0048 µM | 0.0054 µM
7 | CC(C(=O)Nc1ccc(CC[C@H]2COC(N)=N2)cc1)c1ccc(Cl)cc1 (stereo partly drawn) [Example 58, N-{4-[2-((S)-2-Amino-4,5-dihydro-oxazol-4-yl)-ethyl]-phenyl}-2-(4-chloro-phenyl)-propionamide] | 0.0007 µM | 0.0014 µM
8 | NC1=N[C@@H](CCc2ccc(NC(=O)c3cc(F)cnc3F)cc2)CO1 [Example 107, N-{4-[2-((S)-2-Amino-4,5-dihydro-oxazol-4-yl)-ethyl]-phenyl}-2,5-difluoro-nicotinamide] | 0.0012 µM | 0.0014 µM
9 | COc1ncccc1C(=O)Nc1ccc(CC[C@H]2COC(N)=N2)cc1 [Example 115, N-{4-[2-((S)-2-Amino-4,5-dihydro-oxazol-4-yl)-ethyl]-phenyl}-2-methoxy-nicotinamide] | 0.0024 µM | 0.0029 µM
10 | COc1cncc(C(=O)Nc2ccc(CC[C@H]3COC(N)=N3)cc2)n1 [Example 128, (S)-N-(4-(2-(2-Amino-4,5-dihydrooxazol-4-yl)ethyl)phenyl)-6-methoxypyrazine-2-carboxamide] | 0.0054 µM | 0.0079 µM
11 | NC1=N[C@@H](CCc2ccc(NC(=O)c3ccc(F)cc3)cc2)CO1 [Example 16, N-{4-[2-((S)-2-Amino-4,5-dihydro-oxazol-4-yl)-ethyl]-phenyl}-4-fluoro-benzamide] | 0.0003 µM | 0.0008 µM
12 | NC1=N[C@@H](CCc2ccc(NC(=O)Oc3cccc(C(F)(F)F)c3)cc2)CO1 [Example 149, {4-[2-((S)-2-Amino-4,5-dihydro-oxazol-4-yl)-ethyl]-phenyl}-carbamic acid 3-trifluoromethyl-phenyl ester] | 0.0092 µM | 0.0097 µM
13 | COc1ccc(C(=O)Nc2ccc(CC[C@H]3COC(N)=N3)cc2)nc1 [Example 117, (S)-N-(4-(2-(2-Amino-4,5-dihydrooxazol-4-yl)ethyl)phenyl)-5-methoxypicolinamide] | 0.0008 µM | 0.002 µM
14 | NC1=N[C@@H](CCc2ccc(NC(=O)Nc3cccc(Cl)c3)cc2)CO1 [Example 95, 1-{4-[2-((S)-2-Amino-4,5-dihydro-oxazol-4-yl)-ethyl]-phenyl}-3-(3-chloro-phenyl)-urea] | 0.0001 µM | 0.0001 µM
15 | NC1=N[C@@H](CCc2ccc(NC(=O)c3cccnc3F)cc2)CO1 [Example 99, (S)-N-(4-(2-(2-amino-4,5-dihydrooxazol-4-yl)ethyl)phenyl)-2-fluoronicotinamide] | 0.0018 µM | 0.0081 µM
16 | N#Cc1ccc(C(=O)Nc2ccc(CC[C@H]3COC(N)=N3)cc2)cn1 [Example 111, N-{4-[2-((S)-2-Amino-4,5-dihydro-oxazol-4-yl)-ethyl]-phenyl}-6-cyano-nicotinamide] | 0.0057 µM | 0.004 µM
17 | CCOc1ccc(CC(=O)Nc2ccc(CC[C@H]3COC(N)=N3)cc2)cc1 [Example 66, N-{4-[2-((S)-2-Amino-4,5-dihydro-oxazol-4-yl)-ethyl]-phenyl}-2-(4-ethoxy-phenyl)-acetamide] | 0.0017 µM | 0.0026 µM
18 | NC1=N[C@@H](CCc2ccc(NC(=O)c3ncc(C(F)(F)F)cc3Cl)cc2)CO1 [Example 101, 3-Chloro-5-trifluoromethyl-pyridine-2-carboxylic acid {4-[2-((S)-2-amino-4,5-dihydro-oxazol-4-yl)-ethyl]-phenyl}-amide] | 0.0021 µM | 0.0007 µM
19 | NC1=N[C@@H](CCc2ccc(NC(=O)C3CCC(F)(F)CC3)cc2)CO1 [Example 40, 4,4-Difluoro-cyclohexanecarboxylic acid {4-[2-((S)-2-amino-4,5-dihydro-oxazol-4-yl)-ethyl]-phenyl}-amide] | 0.0187 µM | 0.0036 µM
20 | NC1=N[C@@H](CCc2ccc(NC(=O)Nc3ccc(Cl)cc3)cc2)CO1 [Example 3, 1-{4-[2-((S)-2-Amino-4,5-dihydro-oxazol-4-yl)-ethyl]-phenyl}-3-(4-chloro-phenyl)-urea] | 0.0003 µM | 0.0002 µM
21 | NC1=N[C@@H](CCc2ccc(C(=O)Nc3ccc(Cl)cc3)cc2)CO1 [Example 48, 4-[2-((S)-2-Amino-4,5-dihydro-oxazol-4-yl)-ethyl]-N-(4-chloro-phenyl)-benzamide] | 0.0003 µM | 0.001 µM
22 | NC1=N[C@@H](CCc2ccc(NC(=O)c3nc(Cl)ccc3F)cc2)CO1 [Example 89, 6-Chloro-3-fluoro-pyridine-2-carboxylic acid {4-[2-((S)-2-amino-4,5-dihydro-oxazol-4-yl)-ethyl]-phenyl}-amide] | 0.0007 µM | 0.0044 µM

Further lines, results first:

Row | Ki (rat TAAR1) | Ki (mouse TAAR1) | SMILES
23 | 0.0024 µM | 0.0023 µM | CCc1cncc(C(=O)Nc2ccc(CC[C@H]3COC(N)=N3)cc2)n1 [Example 211, (S)-N-(4-(2-(2-Amino-4,5-dihydrooxazol-4-yl)ethyl)phenyl)-6-ethylpyrazine-2-carboxamide]
24 | 0.0003 µM | 0.0001 µM | NC1=N[C@@H](CCc2ccc(NC(=O)OCc3ccc(Cl)cc3)cc2)CO1 [Example 146, {4-[2-((S)-2-Amino-4,5-dihydro-oxazol-4-yl)-ethyl]-phenyl}-carbamic acid 4-chloro-benzyl ester]
25 | 0.0013 µM | 0.0076 µM | C[C@H]1OC(N)=N[C@H]1CCc1ccc(NC(=O)c2ccc(Cl)cc2)cc1 [Example 206, N-(4-(2-((4S,5R)-2-Amino-5-methyl-4,5-dihydrooxazol-4-yl)ethyl)phenyl)-4-chlorobenzamide]
26 | 0.0007 µM | 0.0005 µM | Cc1ccc(C(=O)Nc2ccc(CC[C@H]3COC(N)=N3)cc2)s1 [Example 201, (S)-N-(4-(2-(2-Amino-4,5-dihydrooxazol-4-yl)ethyl)phenyl)-5-methylthiophene-2-carboxamide]
27 | 0.0001 µM | 0.0005 µM | NC1=N[C@@H](CCc2ccc(NC(=O)c3ccc(Cl)s3)cc2)CO1 [Example 169, (S)-N-(4-(2-(2-Amino-4,5-dihydrooxazol-4-yl)ethyl)phenyl)-5-chlorothiophene-2-carboxamide]
28 | 0.0011 µM | 0.0044 µM | N#Cc1ccc(NC(=O)c2ccc(CC[C@H]3COC(N)=N3)cc2)cc1 [Example 142, (S)-4-(2-(2-Amino-4,5-dihydrooxazol-4-yl)ethyl)-N-(4-cyanophenyl)benzamide]
29 | 0.0037 µM | 0.0048 µM | COc1cc(C(=O)Nc2ccc(CC[C@@H]3N=C(N)O[C@H]3C)cc2)nc(Cl)n1 [Example 219, 2-Chloro-6-methoxy-pyrimidine-4-carboxylic acid {4-[2-((4S,5S)-2-amino-5-methyl-4,5-dihydro-oxazol-4-yl)-ethyl]-phenyl}-amide]
30 | 0.0004 µM | 0.0007 µM | Cc1cc(C(=O)Nc2ccc(CC[C@H]3COC(N)=N3)cc2)sc1C [Example 202, (S)-N-(4-(2-(2-Amino-4,5-dihydrooxazol-4-yl)ethyl)phenyl)-4,5-dimethylthiophene-2-carboxamide]
31 | 0.0005 µM | 0.0004 µM | NC1=N[C@@H](C[C@@H](Oc2ccc(NC(=O)c3ccc(Cl)cc3)cc2)C(F)(F)F)CO1 [Example 150, N-{4-[(R)-1-((S)-2-Amino-4,5-dihydro-oxazol-4-ylmethyl)-2,2,2-trifluoro-ethoxy]-phenyl}-4-chloro-benzamide]
32 | 0.0011 µM | 0.0008 µM | Cc1ccc(C(=O)Nc2ccc(CC[C@H]3COC(N)=N3)cc2)nc1 [Example 171, (S)-N-(4-(2-(2-Amino-4,5-dihydrooxazol-4-yl)ethyl)phenyl)-5-methylpicolinamide]
33 | 0.0008 µM | 0.004 µM | NC1=N[C@@H](CCc2ccc(C(=O)Nc3ccc(Cl)cn3)cc2)CO1 [Example 131, (S)-4-(2-(2-Amino-4,5-dihydrooxazol-4-yl)ethyl)-N-(5-chloropyridin-2-yl)benzamide]
34 | 0.0025 µM | 0.0051 µM | CCc1nc(C(=O)Nc2ccc(CC[C@H]3COC(N)=N3)cc2)co1 [Example 217, (S)-N-(4-(2-(2-Amino-4,5-dihydrooxazol-4-yl)ethyl)phenyl)-2-ethyloxazole-4-carboxamide]
35 | 0.0023 µM | 0.0028 µM | CCc1cnc(C(=O)Nc2ccc(CC[C@H]3COC(N)=N3)cc2)cn1 [Example 208, (S)-N-(4-(2-(2-Amino-4,5-dihydrooxazol-4-yl)ethyl)phenyl)-5-ethylpyrazine-2-carboxamide]
